Data published in PubChem BioAssay (NCI).
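Dose response: 5 concentrations. Exposure: 48 h. Format: 96-well plates. Endpoint: linear interpolation; highest concentration if not reached. Here, GI50 denotes the concentration required for 50% inhibition of growth. Definition used: TGI = concentration required for complete inhibition of growth.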

Columns and labels:
Assay in all cases: inhibition of tumour cell growth, NCI panel, 48 h
786-0 renal = tested on: 786-0 renal
A498 renal = tested on: A498 renal
A549 NSCLC = tested on: A549 NSCLC
ACHN renal = tested on: ACHN renal
BT-549 breast = tested on: BT-549 breast
CAKI-1 renal = tested on: CAKI-1 renal
CCRF-CEM leukemia = tested on: CCRF-CEM leukemia
COLO 205 colon = tested on: COLO 205 colon
DU-145 prostate = tested on: DU-145 prostate
EKVX NSCLC = tested on: EKVX NSCLC
HCC-2998 colon = tested on: HCC-2998 colon
HCT-116 colon = tested on: HCT-116 colon
HCT-15 colon = tested on: HCT-15 colon
HL-60(TB) leukemia = tested on: HL-60(TB) leukemia
HOP-62 NSCLC = tested on: HOP-62 NSCLC
HOP-92 NSCLC = tested on: HOP-92 NSCLC
HS 578T breast = tested on: HS 578T breast
HT29 colon = tested on: HT29 colon
IGROV1 ovarian = tested on: IGROV1 ovarian
K-562 leukemia = tested on: K-562 leukemia
KM12 colon = tested on: KM12 colon
LOX IMVI melanoma = tested on: LOX IMVI melanoma
MALME-3M melanoma = tested on: MALME-3M melanoma
MCF7 breast = tested on: MCF7 breast
MDA-MB-231 breast = tested on: MDA-MB-231 breast
MDA-MB-435 = tested on: MDA-MB-435
MDA-MB-468 breast = tested on: MDA-MB-468 breast
MOLT-4 leukemia = tested on: MOLT-4 leukemia
NCI-H226 lung = tested on: NCI-H226 lung
NCI-H23 lung = tested on: NCI-H23 lung
NCI-H460 lung = tested on: NCI-H460 lung
NCI-H522 lung = tested on: NCI-H522 lung
NCI/ADR-RES ovarian = tested on: NCI/ADR-RES ovarian
OVCAR-3 ovarian = tested on: OVCAR-3 ovarian
OVCAR-4 ovarian = tested on: OVCAR-4 ovarian
OVCAR-5 ovarian = tested on: OVCAR-5 ovarian
OVCAR-8 ovarian = tested on: OVCAR-8 ovarian
PC-3 prostate = tested on: PC-3 prostate
RPMI-8226 leukemia = tested on: RPMI-8226 leukemia
RXF 393 renal = tested on: RXF 393 renal
SF-268 CNS = tested on: SF-268 CNS
SF-295 CNS = tested on: SF-295 CNS
SF-539 CNS = tested on: SF-539 CNS
SK-MEL-2 melanoma = tested on: SK-MEL-2 melanoma
SK-MEL-28 melanoma = tested on: SK-MEL-28 melanoma
SK-MEL-5 melanoma = tested on: SK-MEL-5 melanoma
SK-OV-3 ovarian = tested on: SK-OV-3 ovarian
SN12C renal = tested on: SN12C renal
SNB-19 CNS = tested on: SNB-19 CNS
SNB-75 CNS = tested on: SNB-75 CNS
SW-620 colon = tested on: SW-620 colon
T-47D breast = tested on: T-47D breast
TK-10 renal = tested on: TK-10 renal
U251 CNS = tested on: U251 CNS
UACC-257 melanoma = tested on: UACC-257 melanoma
UACC-62 melanoma = tested on: UACC-62 melanoma
UO-31 renal = tested on: UO-31 renal

## N/C(=N\c1nc2ccccc2s1)NC(=O)Nc1ccccc1[N+](=O)[O-]
786-0 renal
  GI50: 186 nM
  TGI: 13.6 µM
A498 renal
  GI50: 17.2 µM
  TGI: 32.8 µM
A549 NSCLC
  GI50: 346 nM
  TGI: 16.9 µM
ACHN renal
  GI50: 111 nM
  TGI: 16.3 µM
BT-549 breast
  GI50: 202 nM
  TGI: 6.56 µM
CAKI-1 renal
  GI50: 63.5 nM
  TGI: 16.1 µM
CCRF-CEM leukemia
  GI50: 55.5 nM
  TGI: 16.6 µM
COLO 205 colon
  GI50: 169 nM
  TGI: 781 nM
DU-145 prostate
  GI50: 327 nM
  TGI: 13.4 µM
EKVX NSCLC
  GI50: 248 nM
  TGI: 17.9 µM
HCC-2998 colon
  GI50: 203 nM
  TGI: 6.1 µM
HCT-116 colon
  GI50: 43.1 nM
  TGI: 6.06 µM
HCT-15 colon
  GI50: 48.2 nM
  TGI: 11.3 µM
HL-60(TB) leukemia
  GI50: 34.1 nM
  TGI: > 100 µM
HOP-62 NSCLC
  GI50: 104 nM
  TGI: 19.6 µM
HOP-92 NSCLC
  GI50: 4.58 µM
  TGI: 26.3 µM
HS 578T breast
  GI50: 61.5 nM
  TGI: 18.7 µM
HT29 colon
  GI50: 62.1 nM
  TGI: 645 nM
IGROV1 ovarian
  GI50: 108 nM
  TGI: 12.7 µM
K-562 leukemia
  GI50: 42.4 nM
  TGI: > 100 µM
KM12 colon
  GI50: 60.5 nM
  TGI: 14 µM
LOX IMVI melanoma
  GI50: 69.8 nM
  TGI: 11.6 µM
MALME-3M melanoma
  GI50: 103 nM
  TGI: 16.7 µM
MCF7 breast
  GI50: 168 nM
  TGI: 12.6 µM
MDA-MB-231 breast
  GI50: 139 nM
  TGI: 4.66 µM
MDA-MB-435
  GI50: 24.2 nM
  TGI: 72.8 nM
MDA-MB-468 breast
  GI50: 228 nM
  TGI: 573 nM
MOLT-4 leukemia
  GI50: 195 nM
  TGI: > 51.3 µM
NCI-H226 lung
  GI50: 571 nM
  TGI: 9.26 µM
NCI-H23 lung
  GI50: 266 nM
  TGI: 16.8 µM
NCI-H460 lung
  GI50: 56.8 nM
  TGI: 6.76 µM
NCI-H522 lung
  GI50: 33 nM
  TGI: 363 nM
NCI/ADR-RES ovarian
  GI50: 45 nM
  TGI: 345 nM
OVCAR-3 ovarian
  GI50: 51.4 nM
  TGI: 9.13 µM
OVCAR-4 ovarian
  GI50: 8.07 µM
  TGI: 42.5 µM
OVCAR-5 ovarian
  GI50: 376 nM
  TGI: 13.1 µM
OVCAR-8 ovarian
  GI50: 201 nM
  TGI: 9.44 µM
PC-3 prostate
  GI50: 143 nM
  TGI: 28.8 µM
RPMI-8226 leukemia
  GI50: 341 nM
  TGI: > 59.9 µM
RXF 393 renal
  GI50: 47.2 nM
  TGI: 499 nM
SF-268 CNS
  GI50: 2360 nM
  TGI: 36.8 µM
SF-295 CNS
  GI50: 55 nM
  TGI: 10.8 µM
SF-539 CNS
  GI50: 39.9 nM
  TGI: 273 nM
SK-MEL-2 melanoma
  GI50: 32.9 nM
  TGI: 3.02 µM
SK-MEL-28 melanoma
  GI50: 1200 nM
  TGI: 20.6 µM
SK-MEL-5 melanoma
  GI50: 52.7 nM
  TGI: 1590 nM
SK-OV-3 ovarian
  GI50: 236 nM
  TGI: 31.1 µM
SN12C renal
  GI50: 258 nM
  TGI: 12.7 µM
SNB-19 CNS
  GI50: 151 nM
  TGI: 19.6 µM
SNB-75 CNS
  GI50: 36.3 nM
  TGI: 12.5 µM
SW-620 colon
  GI50: 52.9 nM
  TGI: 19.5 µM
T-47D breast
  GI50: 538 nM
  TGI: 25.7 µM
TK-10 renal
  GI50: 12.9 µM
  TGI: 28.4 µM
U251 CNS
  GI50: 55.5 nM
  TGI: 14 µM
UACC-257 melanoma
  GI50: 12.2 µM
  TGI: 25 µM
UACC-62 melanoma
  GI50: 45.9 nM
  TGI: 14 µM
UO-31 renal
  GI50: 244 nM
  TGI: 17.1 µM
